Experimental data: patent US9403778B2, “Agents that prevent or repair skin damage” (Regents of the University of Minnesota, priority 2012, dated 2016)

Experiments:
[1] = tested on: SKH-1 hairless mouse dorsal skin; experiment: Test D. Murine animal studies: thymine dimer formation (DNA damage) in dorsal skin; format: in vivo
Description: Test D. Murine Animal Studies
(§1) The UVA, UVB and Solar Simulated Light (SSL) treatment groups included mice that were left untouched in their cages (no preventative treatment) and mice treated topically on their backs with cream vehicle or AR compounds in the cream vehicle and rubbed with a glove. At 20 minutes post treatment the mice were exposed to 180 mJ/cm^2 of UVA, UVB or SSL equivalent to one hour of noon day summer sunlight. One, four, eight and twenty-four hours post UVA, UVB or SSL exposure, the mice were euthanized by IP Ketamine/Xylazine injection and bled.
(§2) The no UVA, UVB and SSL treatment groups included mice which were left untouched in their cages (no preventative treatment) and mice treated topically on their backs with cream vehicle and AR compounds in cream vehicle as indicated above. After treatment the mice were placed back into their cages, away from sunlight. One, four, eight and twenty-four hours post treatment, the no UVA, UVB and SSL treated mice were euthanized by IP Ketamine/Xylazine injection and bled.
(§3) For the animal groups above, post euthanasia, the dorsal and belly skin was collected and preserved in Zamboni's fixative for future studies. […] The skin was analyzed in-house by immunohistostaining (p53, thymine dimer, XPC and other DNA repair enzymes, collagen, elastin, etc.) and confocal microscopy. […]

xpc [2] = experiment: Test D. Murine animal studies: up-regulation of DNA repair enzyme xpc in dorsal skin; format: in vivo, mouse; details: 5% in cream vehicle, topical
Description: as §1, §2, §3

xpc [3] = experiment: Test E. Human skin study: xpc production
Description: Human skin was obtained from the University of Minnesota BioNet Tissue Procurement Facility and stored on ice or in cell culture media until ready to be used. All samples were kept away from sunlight. The skin was cut into pieces and placed in 6-well cell culture plates with a small amount of culture media at the bottom of the well but not enough to cover the top of the tissue. Using a gloved hand, the skin was rubbed with cream vehicle or AR drug in the cream vehicle. At 20 minutes post treatment the skin was exposed to 180 mJ/cm^2 of UVA, UVB or Solar Simulated Light (SSL) equivalent to one hour of noon day summer sunlight. Post UVA, UVB or SSL exposure, additional media was placed in the bottom of the wells and the plates moved to the tissue culture incubator (37° C., 5% CO2). Samples were removed from the incubator and placed in Zamboni's fixative for future studies at one, four, eight and twenty-four hours post UVA, UVB or SSL exposure.
Samples not exposed to UVA, UVB or SSL light were placed into 6-well plates with a small amount of cell culture media but not enough to cover the top of the tissue and stored in the cell culture incubator. […]
All skin samples were analyzed in-house by immunohistostaining (p53, thymine dimer, XPC and other DNA repair enzymes, collagen, elastin, etc.) and confocal microscopy.

Row | SMILES | protection against thymine dimer formation (DNA damage) ([1]; in cream vehicle, topical 20 minutes prior to UVB 6 KJ/m^2, harvested 4 hours after irradiation, vs UV only control) | xpc production in SSL exposed skin (xpc [2]; solar simulated light equivalent to 1 h noon time summer sun light, vs SSL cream-only control) | thymine dimer immuno-reactivity of skin section ([1]; 5% in cream vehicle, topical, no SSL irradiation, 8 hour time point) | xpc immuno-reactivity (xpc antibody) (xpc [2]; no SSL irradiation) | xpc levels / xpc staining in non-irradiated human skin (xpc [3]; human skin not exposed to SSL, compared with SSL only control) | time post application at which xpc stimulation is still evident (xpc [3]; non SSL damaged human skin)
1 | CCCC(=O)N(CCn1cc(C)c(=O)[nH]c1=O)CCn1cc(C)c(=O)[nH]c1=O [Compound 24a] | protected against thymine dimer formation | stimulated xpc production |  |  |  | 
2 | C[C@@]12C(=O)NC(=O)N3CCCN4C(=O)NC(=O)[C@]1(C)[C@H]4[C@H]32 [Compound 10] |  |  | completely negative | significant immuno-reactivity | higher levels of xpc than the SSL only control | ≥ 8 h
